Laboratory results as given in PubChem BioAssay (NCI).
Values joined by “and” are separate entries in the source; they are usually repeats but may differ in a detail not shown here. Identical values can stand only once.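 Results reflect a 48-hour exposure of cells in 96-well plates to compound at five concentrations. Here, GI50 denotes the concentration required for 50% inhibition of growth. The concentration for full growth arrest is given as TGI.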

How the values were obtained:
Test in all cases: NCI tumour cell line growth inhibition, 48 h
CCRF-CEM leukemia = tested on: CCRF-CEM leukemia
IGROV1 ovarian = tested on: IGROV1 ovarian
K-562 leukemia = tested on: K-562 leukemia
M14 melanoma = tested on: M14 melanoma
OVCAR-3 ovarian = tested on: OVCAR-3 ovarian
SN12C renal = tested on: SN12C renal
SR leukemia = tested on: SR leukemia
SW-620 colon = tested on: SW-620 colon
UACC-257 melanoma = tested on: UACC-257 melanoma
EKVX NSCLC = tested on: EKVX NSCLC

Row | Compound | GI50 (CCRF-CEM leukemia) | TGI (CCRF-CEM leukemia) [µM] | GI50 (IGROV1 ovarian) | TGI (IGROV1 ovarian) | GI50 (K-562 leukemia) | TGI (K-562 leukemia) | GI50 (M14 melanoma) | TGI (M14 melanoma) | GI50 (OVCAR-3 ovarian) | TGI (OVCAR-3 ovarian) | GI50 (SN12C renal) | TGI (SN12C renal) | GI50 (SR leukemia) | TGI (SR leukemia) | GI50 (SW-620 colon) | TGI (SW-620 colon) | GI50 (UACC-257 melanoma) | TGI (UACC-257 melanoma) | TGI (EKVX NSCLC) [µM] | GI50 (EKVX NSCLC) [µM]
1 | Cc1cc(Cc2cc(C)c(O)c(C)c2)cc(C)c1O | 4.14 µM | > 100 | 11.3 µM | > 100 µM | 1.76 µM | 18.8 µM | 3 µM | 13.2 µM | 3.43 µM | 10.5 µM | 5.12 µM | > 100 µM | 2.65 µM | 20.2 µM | 3.03 µM | > 100 µM | 6.94 µM | 62.2 µM | – | –
2 | C[C@@H](C1CCC2C3C(=CC(=O)[C@@]21C)[C@H](C)[C@]1(CCC(=O)O1)C1OC31)[C@H]1C[C@]2(C)O[C@@](C)(O1)OC2(C)C (stereo partly drawn) | – | > 100 | – | > 100 µM | – | > 100 µM | – | > 100 µM | – | – | – | > 100 µM | – | – | – | > 100 µM | – | – | > 100 | –
3 | Clc1ccccc1C(n1ncc2ccccc21)n1ncc2ccccc21 | – | > 100 | – | > 10 µM | – | > 100 µM | – | > 100 µM | – | > 100 µM | – | > 100 µM | – | > 100 µM | – | > 100 µM | – | > 100 µM | – | –
4 | COc1cc(NS(C)(=O)=O)ccc1Nc1c2ccccc2nc2c(C)cccc12 | 0.0322 µM and 0.0364 µM | – | 0.541 µM and 0.438 µM | 24.1 µM and 19.9 µM | 0.272 µM and 0.276 µM | > 37.8 µM and 11.8 µM | 0.198 µM and 0.129 µM | 13.9 µM and 11.1 µM | 0.794 µM and 0.933 µM | 2.35 µM and 2.94 µM | 0.0961 µM and 0.087 µM | 1.36 µM and 2.08 µM | < 0.0145 µM and 0.013 µM | 6.75 µM and 2.16 µM | 0.0825 µM and 0.123 µM | 3.4 µM and 4 µM | 0.792 µM and 0.639 µM | 12.1 µM and 13.5 µM | – | –
5 | CN(CCC#N)c1ccc(/C=C(\C#N)c2cccc(C(F)(F)F)c2)cc1 | – | – | 4.95 µM | > 100 µM | 2.69 µM | > 100 µM | 3.51 µM | > 100 µM | 4.29 µM | > 100 µM | 4.17 µM | > 100 µM | 2.52 µM | > 100 µM | 3.17 µM | > 100 µM | – | – | – | –
6 | CN(Cc1cnc(N)nc1N)c1ccc(C(=O)O)cc1 | > 100 µM | > 100 | > 100 µM | > 100 µM | – | – | > 100 µM | > 100 µM | > 100 µM | > 100 µM | > 100 µM | > 100 µM | > 100 µM | > 100 µM | > 100 µM | > 100 µM | > 100 µM | > 100 µM | > 100 | > 100
7 | O=C1c2ccccc2C(=O)C2C1C1C(=O)c3ccccc3C(=O)C21 (stereo not drawn) | – | > 100 | – | > 100 µM | – | > 100 µM | – | > 100 µM | – | > 100 µM | – | > 100 µM | – | – | – | > 100 µM | – | > 100 µM | > 100 | –
8 | Cc1nc2ccccc2c(=O)n1/N=C(\N=Nc1cc(Cl)ccc1Cl)c1cccc(-c2ccco2)c1 | – | > 10 | – | > 100 µM | – | > 10 µM | – | > 100 µM | – | > 100 µM | – | > 100 µM | – | – | – | > 100 µM | – | > 100 µM | > 100 | –
9 | CC1(C)C(c2ccccc2)=NN(O)c2ccccc21 | – | > 100 | – | > 100 µM | – | > 100 µM | – | > 100 µM | – | > 100 µM | – | – | – | – | – | > 100 µM | – | > 100 µM | > 100 | –
10 | COc1cc2ccccc2c2cc([N+](=O)[O-])oc12 | – | – | – | 7.19 µM | – | > 38.9 µM | – | 0.608 µM | – | 5.41 µM | – | > 48.7 µM | – | 1.92 µM | – | 15 µM | – | 0.443 µM | 14.1 | –
11 | O=C(c1ccccc1)C(c1ccccc1)C1(O)C(=O)Nc2ccccc21 (stereo not drawn) | – | > 100 | – | > 100 µM | – | > 100 µM | – | > 100 µM | – | > 100 µM | – | > 100 µM | – | – | – | > 100 µM | – | > 100 µM | > 100 | –
12 | Cc1cc(N2CCN(C)CC2)nc(NCc2cc(Nc3ccnc4cc(Cl)ccc34)ccc2F)n1 | – | – | 2.04 µM | 7.26 µM | 1.9 µM | 5.7 µM | 2 µM | 3.86 µM | 2 µM | 4.15 µM | 2.3 µM | 5.62 µM | 1.94 µM | 4.89 µM | 1.85 µM | 4.01 µM | 2.11 µM | 3.9 µM | > 100 | 2.5
13 | N=CCCN(CCC=N)c1ccc(/C=C2\CN(NC(=O)c3ccc(Cl)cc3)C(c3ccccc3)=N2)cc1 | – | > 100 | – | > 100 µM | – | > 100 µM | – | > 100 µM | – | > 100 µM | – | > 100 µM | – | – | – | 30.6 µM | – | > 100 µM | > 100 | –
14 | COC1C(O)C(C)OC(OC2C(Oc3cccc4c(O)c5c(=O)oc6ccc(C)c7c(=O)oc(c34)c5c67)OC(C)C3O[C@H](c4ccccc4)OC32)C1O (stereo partly drawn) | 0.0752 µM and 0.0731 µM | 8.82 | – | 3.42 µM | 0.309 µM and 0.0798 µM | 23.2 µM | 0.514 µM | 6.48 µM | – | 5.31 µM | 0.173 µM | 6.17 µM | – | – | – | 14.3 µM | 0.798 µM and 0.372 µM | 3.86 µM | 5.99 | –
15 | O=C(/C=C1\C(=O)N(Cc2ccc([N+](=O)[O-])cc2)c2ccccc21)c1ccc(OCCN2CCCCC2)cc1 | 0.323 µM | 2.35 | – | – | 0.415 µM | 2.2 µM | 1.59 µM | 3.11 µM | 1.25 µM | 2.57 µM | – | – | – | – | – | – | 1.95 µM | 3.57 µM | 3.9 | 1.56
16 | CC1(C)C(c2ccccc2)C12CCC1(C2=O)C(c2ccccc2)C1(C)C (stereo not drawn) | – | 36.5 | – | > 100 µM | – | 38.4 µM | – | 75.5 µM | – | 43.5 µM | – | 73 µM | – | – | – | 46.8 µM | – | 37.4 µM | 69.3 | –
17 | COc1cc2c(c(OC)c1OC)C(=O)CC(c1cccc(NC(=O)c3ccc(Br)cc3)c1)O2 (stereo not drawn) | – | – | 3.05 µM | > 100 µM | 1.4 µM | > 100 µM | 2.08 µM | 7.49 µM | – | – | 3.06 µM | > 100 µM | – | – | 3.83 µM | > 100 µM | 2.96 µM | 9.04 µM | > 100 | 2.5
